Marks after values point to notes of the source that are not given here.
Key:
Format in all cases: in vivo, human
Plasma pharmacokinetics = conditions: for clearance / AUC(0-inf) / MRT / Vd: human, plasma, iv; for AUC0–∞,norm / Cmax,norm / AUC0–168,norm: gMean, dose normalised
[1] = QTcF interval, triplicate 12-lead ECG; conditions: for maximal mean change (±s.d.) from baseline in QTcF: 2 h post-administration, first two courses
Adverse events = experiment: Adverse events
[2] = schedule A, 100 mg (n=3), first 2-h i.v. infusion
[3] = schedule A, 200 mg (n=3), first 2-h i.v. infusion
[4] = schedule A, 250 mg (n=5), first 2-h i.v. infusion
[5] = schedule A, 300 mg (n=16), first 2-h i.v. infusion
[6] = schedule A, 100 mg (n=3), irrespective of relatedness
[7] = schedule A, 250 mg (n=6), irrespective of relatedness
[8] = schedule A, 300 mg (n=17), irrespective of relatedness
[9] = schedule A, 350 mg (n=3), irrespective of relatedness

In the case of CC[C@@H]1C(=O)N(C)c2cnc(Nc3ccc(C(=O)N[C@H]4CC[C@H](N5CCN(CC6CC6)CC5)CC4)cc3OC)nc2N1C(C)C [volasertib], the “apparent terminal half-life (t1/2)” value (Plasma pharmacokinetics; 2-h i.v. infusion, summary across doses) is reported as 135 h, the clearance (Plasma pharmacokinetics) is reported as greater than 770 mL/min and the AUC(0-inf) (Plasma pharmacokinetics; 100 mg) is reported as 2140 ng·h/mL. For the same compound, the MRT (Plasma pharmacokinetics; 100 mg) was 163 h, the Vd (Plasma pharmacokinetics; 100 mg) was 7600 L and the clearance (Plasma pharmacokinetics; 100 mg) was 780 mL/min. It also gave an AUC(0-inf) (Plasma pharmacokinetics; 200 mg) of 3280 ng·h/mL, an MRT (Plasma pharmacokinetics; 200 mg) of 98.2 h and a Vd (Plasma pharmacokinetics; 200 mg) of 5980 L. It also gave a clearance (Plasma pharmacokinetics; 200 mg) of 1020 mL/min, an AUC(0-inf) (Plasma pharmacokinetics; 250 mg) of 6140 ng·h/mL and an MRT (Plasma pharmacokinetics; 250 mg) of 109 h. For the same compound, the Vd (Plasma pharmacokinetics; 250 mg) was 4440 L, the clearance (Plasma pharmacokinetics; 250 mg) was 679 mL/min and the AUC(0-inf) (Plasma pharmacokinetics; 300 mg) was 6260 ng·h/mL. For the same compound, the MRT (Plasma pharmacokinetics; 300 mg) was 103 h, the Vd (Plasma pharmacokinetics; 300 mg) was 4920 L and the clearance (Plasma pharmacokinetics; 300 mg) was 798 mL/min. For the same compound, the AUC(0-inf) (Plasma pharmacokinetics; 350 mg) was 9790 ng·h/mL, the MRT (Plasma pharmacokinetics; 350 mg) was 93 h and the Vd (Plasma pharmacokinetics; 350 mg) was 3320 L. The clearance (Plasma pharmacokinetics; 350 mg) was 596 mL/min, the elimination route (Plasma pharmacokinetics; low exposures of main metabolite, data not shown) was “primarily eliminated unchanged” and the “AUC0–∞,norm” value (Plasma pharmacokinetics; [2]) was 21.4 ng·h/mL/mg. The “Cmax,norm” value (Plasma pharmacokinetics; [2]) was 1.86 ng/mL/mg, the “AUC0–∞,norm” value (Plasma pharmacokinetics; [3]) was 16.4 ng·h/mL/mg and the “Cmax,norm” value (Plasma pharmacokinetics; [3]) was 2.70 ng/mL/mg. The “AUC0–∞,norm” value (Plasma pharmacokinetics; [4]) was 24.6 ng·h/mL/mg, the “Cmax,norm” value (Plasma pharmacokinetics; [4]) was 2.16 ng/mL/mg and the “AUC0–∞,norm” value (Plasma pharmacokinetics; [5]) was 20.9 ng·h/mL/mg. The “Cmax,norm” value (Plasma pharmacokinetics; [5]) was 1.63 ng/mL/mg, the “AUC0–∞,norm” value (Plasma pharmacokinetics; schedule A, 350 mg (n=2), first 2-h i.v. infusion) was 28.0 ^a (ng h ml^−1) mg^−1 and the “Cmax,norm” value (Plasma pharmacokinetics; schedule A, 350 mg (n=3), first 2-h i.v. infusion) was 1.93 ng/mL/mg. For the same compound, the “AUC0–168,norm” value (Plasma pharmacokinetics; schedule B, 50 mg (n=3), first 2-h i.v. infusion) was 11.8 ^b (ng h ml^−1) mg^−1, the “Cmax,norm” value (Plasma pharmacokinetics; schedule B, 50 mg (n=4), first 2-h i.v. infusion) was 2.12 ng/mL/mg and the “Cmax,norm” value (Plasma pharmacokinetics; schedule B, 100 mg (n=3), first 2-h i.v. infusion) was 2.34 ng/mL/mg. The “AUC0–168” value (Plasma pharmacokinetics; schedule B, 100 mg, first 2-h i.v. infusion, n=2, individual values) was 1390 ng·h/mL, the “AUC0–168,norm” value (Plasma pharmacokinetics; schedule B, 150 mg (n=14), first 2-h i.v. infusion) was 12.6 ^d (ng h ml^−1) mg^−1 and the “Cmax,norm” value (Plasma pharmacokinetics; schedule B, 150 mg (n=15), first 2-h i.v. infusion) was 1.56 ng/mL/mg. For the same compound, the “AUC0–168,norm” value (Plasma pharmacokinetics; schedule B, 200 mg (n=2), first 2-h i.v. infusion) was 16.6 ^a (ng h ml^−1) mg^−1, the “Cmax,norm” value (Plasma pharmacokinetics; schedule B, 200 mg (n=3), first 2-h i.v. infusion) was 2.05 ng/mL/mg and the accumulation (Plasma pharmacokinetics; schedule B, administration on day 1 and day 8) was “No accumulation”. For the same compound, the “QTcF at 8-h post-dose assessment” value ([1]; first course) was “returned to baseline levels”, the “clinically relevant cardiac AEs related to a prolonged QT interval” value ([1]; in vivo) was “No related clinically relevant cardiac AEs” and the “maximal mean change (±s.d.) from baseline in QTcF” value ([1]; schedule A, 300 mg) was 21.0 (±10.6) ms. For the same compound, the “maximal mean change (±s.d.) from baseline in QTcF” value ([1]; schedule B, 150 mg) was 14.9 (±11.7) ms, the “deaths during the study” value (Adverse events; all due to underlying cancer, none considered related to volasertib) was “three deaths” and the “Abdominal pain grade 3, number of patients” value (Adverse events; [6]) was 1 n. For the same compound, the “Anaemia grade 3, number of patients” value (Adverse events; [6]) was 1 n, the “Fatigue grade 3, number of patients” value (Adverse events; [6]) was 1 n and the “Neutropenia grade 3, number of patients” value (Adverse events; [6]) was 1 n. For the same compound, the “Thrombocytopenia grade 3, number of patients” value (Adverse events; [6]) was 1 n, the “Upper GI haemorrhage grade 3, number of patients” value (Adverse events; [6]) was 1 n and the “Anaemia grade 3, number of patients” value (Adverse events; [7]) was 3 n. For the same compound, the “Anaemia grade 4, number of patients” value (Adverse events; [7]) was 1 n, the “Hypokalaemia grade 3, number of patients” value (Adverse events; [7]) was 1 n and the “Ileus grade 3, number of patients” value (Adverse events; [7]) was 1 n. The “Leukopenia grade 4, number of patients” value (Adverse events; [7]) was 1 n, the “Neutropenia grade 4, number of patients” value (Adverse events; [7]) was 2 n and the “Thrombocytopenia grade 3, number of patients” value (Adverse events; [7]) was 1 n. The “Thrombocytopenia grade 4, number of patients” value (Adverse events; [7]) was 1 n, the “Abdominal pain grade 3, number of patients” value (Adverse events; [8]) was 2 n and the “Anaemia grade 3, number of patients” value (Adverse events; [8]) was 2 n. For the same compound, the “Anaemia grade 4, number of patients” value (Adverse events; [8]) was 2 n, the “Fatigue grade 3, number of patients” value (Adverse events; [8]) was 1 n and the “Febrile neutropenia grade 3, number of patients” value (Adverse events; [8]) was 1 n. The “Febrile neutropenia grade 4, number of patients” value (Adverse events; [8]) was 1 n, the “Infection grade 3, number of patients” value (Adverse events; [8]) was 1 n and the “Leukopenia grade 3, number of patients” value (Adverse events; [8]) was 7 n. The “Neutropenia grade 3, number of patients” value (Adverse events; [8]) was 5 n, the “Neutropenia grade 4, number of patients” value (Adverse events; [8]) was 5 n and the “Pain grade 3, number of patients” value (Adverse events; [8]) was 1 n. The “Thrombocytopenia grade 3, number of patients” value (Adverse events; [8]) was 7 n, the “Thrombocytopenia grade 4, number of patients” value (Adverse events; [8]) was 2 n and the “Anaemia grade 3, number of patients” value (Adverse events; [9]) was 2 n. The “Anaemia grade 4, number of patients” value (Adverse events; [9]) was 1 n, the “Febrile neutropenia grade 3, number of patients” value (Adverse events; [9]) was 1 n and the “Leukopenia grade 3, number of patients” value (Adverse events; [9]) was 2 n. For the same compound, the “Neutropenia grade 4, number of patients” value (Adverse events; [9]) was 3 n, the “Thrombocytopenia grade 3, number of patients” value (Adverse events; [9]) was 1 n and the “Thrombocytopenia grade 4, number of patients” value (Adverse events; [9]) was 2 n.
